# Assay results published in patent US8288441B2, “Compositions comprising a physiological coolant” (Givaudan Nederland Services B.V., priority 2007, dated 2012).
# System: forearm skin
# Assay: Perception of cooling after applying aqueous ethanol solutions to the forearms of volunteers
# Format: in vivo, human
# Text: A simple aqueous ethanol solution (50:50) containing 1% by weight of lactoyl ethanolamide was applied to one forearm. The aqueous ethanol solution alone (control) was then applied to the other forearm at a similar dosage, and the perception of cooling from either arm noted. This was repeated on 10 volunteers in total.
# (§1) A simple aqueous ethanol solution (50:50) containing 0.2% by weight of L-menthol and 1% by weight of lactoyl ethanolamide was applied to one forearm at a concentration of 2 drops per 10 square centimetres of skin. The aqueous ethanol solution containing just 0.2% by weight L-menthol was then applied to the other forearm at the same dose, and the perception of cooling from either arm noted. This was repeated on 10 volunteers.
# as §1, with “and 0.5%” for “and 1%”, “containing” for “containing just”, “arm noted over 4 hours at 30 minute intervals.” for “arm noted.”, “on 12” for “on 10”
# as §1, with “containing 1%” for “containing 0.2%”, “of menthyl lactate” for “of L-menthol”, “containing 1%” for “containing just 0.2%”, “weight menthyl lactate” for “weight L-menthol”, “arm noted over 4 hours at 30 minute intervals.” for “arm noted.”, “on 12” for “on 10”
# as §1, with “1.0%” for “0.2%”, “menthone glyceryl ketal” for “L-menthol”, “0.5%” for “1%”, “1%” for “just 0.2%”, “noted over 4 hours at 1 hour intervals.” for “noted.”
# (§2) A simple aqueous ethanol solution (50:50) containing 0.75% by weight of menthyl glyceryl ether and 0.5% by weight of lactoyl ethanolamide was applied to one forearm at a concentration of 2 drops per 10 square centimetres of skin. An aqueous ethanol solution containing 1% by weight menthyl glyceryl ether was then applied to the other forearm at the same dose, and the perception of cooling from either arm noted over a 4 hour period. This was repeated on 12 volunteers.
# as §2, with “1%” for “0.75%”, “pyrrolidone carboxylate” for “glyceryl ether”, “dose” for “dose,”, “6” for “4”, “33” for “12”
# [1] = Example 7, 1% menthyl pyrrolidone carboxylate + 0.5% lactoyl ethanolamide vs 1% menthyl pyrrolidone carboxylate alone, 6 hour period, 33 volunteers
compound,measurement,setting,value
CC(C)[C@@H]1CC[C@@H](C)C[C@H]1O [L-menthol],period of time over which cooling was felt,"Example 3, 0.2% L-menthol with or without 0.5% lactoyl ethanolamide, noted over 4 hours at 30 minute intervals, 12 volunteers",about 2 hours
"CC(O)C(=O)NCCO (stereo not shown) [lactoyl ethanolamide, N-lactoyl ethanolamide]",cooling perception versus placebo solution,"Example 1, 1% by weight lactoyl ethanolamide in aqueous ethanol (50:50) vs aqueous ethanol alone, other forearm, 10 volunteers",no difference in cooling perception
same,cooling perception versus coolant alone,"Example 2, 0.2% L-menthol + 1% lactoyl ethanolamide vs 0.2% L-menthol alone, 2 drops per 10 square centimetres, 10 volunteers",higher cooling perception
same,level of cooling versus coolant alone,[1],higher level of cooling
same,time for which the improved cooling perception was sustained,[1],at least 6 hours
CC1CCC(C(C)C)C2(C1)OCC(CO)O2 (stereo not shown) [menthone glyceryl ketal],period of time over which cooling was felt,"Example 5, 1% menthone glyceryl ketal with or without 0.5% lactoyl ethanolamide, noted over 4 hours at 1 hour intervals, 10 volunteers",about 3 hours
CC1CCC(C(C)C)C(OC(=O)C(C)O)C1 (stereo not shown) [menthyl lactate],period of time over which cooling was felt,"Example 4, 1% menthyl lactate with or without 1% lactoyl ethanolamide, noted over 4 hours at 30 minute intervals, 12 volunteers",about 2 hours
